Results on three compounds are retold here after US20050182036A1, “Medicinal composition containing an HMG-CoA reductase inhibitor” (SANKYO COMPANY, LIMITED, priority 2002, published 2005).

The structures appear in SMILES notation.

Common to all, as to format: in vivo
Experiment [1] deals with blood concentration of total nitric oxides (NOx). The experiment in a line: Blood total nitric oxides (NOx) level in Beagle dogs after 11-day oral administration, NO3- + NO2- by HPLC. The conditions noted are these: male Beagle dogs, oral once daily, relative to pre-treatment average = 100, mean of 5 dogs. An excerpt: Simvastatin and atorvastatin synthesized at Chemtech Labo., Inc. were used. Gamma-oryzanol was purchased from Riken Vitamin Co., Ltd. and used. Benfotiamine manufactured at Sankyo Co., Ltd. was used.
Male Beagle dogs of 5 months of age were purchased from Covance Research Products Inc. as the test animals and were used after accommodation breeding for approximately 5 months.
The required amount of the test substance calculated based on the body weight of the test animals was weighed and filled in gelatin capsules (TORPAC Inc., 1/2 oz). After filling up, the capsules were placed in a box divided up for every animal and stored under freezing until use.
The capsules filled up with the test substance were orally administered to the test animals once daily via an oral gavage between 9:00-12:30. The test animals were fasted for 2-3 hrs prior to each administration. The administration period was 11 days.
Approximately 10 mL of blood was collected from the cephalic vein of each dog on—14 and—7 day (the 1st and the 2nd week prior to administration) as well as 4, 8, and 12 days after administration. The animals were fasted for approximately 18 hrs before collection of the blood.
The collected blood was placed in a test tube and allowed to stand at room temperature for 30 min to 1 hour. Then the blood was centrifuged (approximately 1,600 g, for 10 min) and the resultant serum obtained was used for assays.
Nitric oxide synthesized by nitric oxide synthase (NOS) is rapidly converted to nitrate ion (NO3^−) and nitrite ion (NO2^−). Blood concentration of total nitric oxides (NOx) is represented by the sum of NO3^− and NO2^− assayed by HPLC.
Relative values of blood concentration of total nitric oxides (NOx) in animals treated with each dose of simvastatin or atorvastatin calcium, gamma-oryzanol, and benfotiamine alone as well as their medicinal compositions as described above were calculated against each converted average value calculated from that determined 2 weeks and one week before treatment into 100.

The nature of experiment [2]: Atherosclerosis index (LDL/HDL) in Beagle dogs after 11-day oral administration. The following applies: male Beagle dogs, oral once daily, relative to pre-treatment average = 100, mean of 5 dogs, mg/Kg: gamma-oryzanol 100, simvastatin 1. An excerpt:
(§1) Simvastatin and atorvastatin synthesized at Chemtech Labo., Inc. were used. Gamma-oryzanol was purchased from Riken Vitamin Co., Ltd. and used. Benfotiamine manufactured at Sankyo Co., Ltd. was used. Male Beagle dogs of 5 months of age were purchased from Covance Research Products Inc. as the test animals and were used after accommodation breeding for approximately 5 months. The required amount of the test substance calculated based on the body weight of the test animals was weighed and filled in gelatin capsules (TORPAC Inc., 1/2 oz). After filling up, the capsules were placed in a box divided up for every animal and stored under freezing until use. The capsules filled up with the test substance were orally administered to the test animals once daily via an oral gavage between 9:00-12:30. The test animals were fasted for 2-3 hrs prior to each administration. The administration period was 11 days. […] The animals were fasted for approximately 18 hrs before collection of the blood. […] In addition, total cholesterol content was assayed by enzymatic assay method while HDL, LDL, and triglyceride were determined by homogeneous method, chemically modified method, and enzymatic techniques, respectively. ALP was assayed by Bessey-Lowry method. Clinical Laboratory System (TBA-120FR, Toshiba Medical Systems Corporation) was used in all of these determinations. […] The values indicate average results calculated from 5 dogs per group.

Experiment [3] is described as follows: Blood total cholesterol level in Beagle dogs after 11-day oral administration, enzymatic assay. The following applies: male Beagle dogs, oral once daily, relative to pre-treatment average = 100, mean of 5 dogs, mg/Kg: gamma-oryzanol 100, simvastatin 1.
Description: as §1

A short description of experiment [4]: Blood LDL level in Beagle dogs after 11-day oral administration. The conditions noted are these: male Beagle dogs, oral once daily, relative to pre-treatment average = 100, mean of 5 dogs, mg/Kg: gamma-oryzanol 100, simvastatin 1.
Description: as §1

Setting [5] is: 4 Days after treatment, mg/Kg: benfotiamine 50, simvastatin 1, atorvastatin calcium 2.
Where [6] appears, read: 8 Days after treatment, mg/Kg: benfotiamine 50, simvastatin 1, atorvastatin calcium 2.
Where [7] appears, read: 12 Days after treatment, mg/Kg: benfotiamine 50, simvastatin 1, atorvastatin calcium 2.

Regarding `C/C(=C(\CCOP(=O)(O)O)SC(=O)c1ccccc1)N(C=O)Cc1cnc(C)nc1N` [Benfotiamine], the “Changes in blood NOx levels (%)” value in experiment [1] (setting [5]) was determined as 96.4%; in experiment [1] (setting [6]), 91.6%; in experiment [1] (setting [7]) it was 107.1%.
As for `CC(C)c1c(C(=O)Nc2ccccc2)c(-c2ccccc2)c(-c2ccc(F)cc2)n1CC[C@H](O)C[C@@H](O)CC(=O)O` [Atorvastatin calcium, (3R,5S)-7-[2-(4-fluorophenyl)-5-(1-methylethyl)-3-phenyl-4-phenylaminocarbonyl-1H-pyrrol-1-yl]-3,5-dihydroxyheptanoic acid], the results for the “Changes in blood NOx levels (%)” value in experiment [1] (setting [5]), in experiment [1] (setting [6]) and in experiment [1] (setting [7]) were 117.7%, 114.1% and 117.9%, respectively.
For the compound `CCC(C)(C)C(=O)O[C@H]1C[C@@H](C)C=C2C=C[C@H](C)[C@H](CC[C@@H]3C[C@@H](O)CC(=O)O3)[C@H]21` [Simvastatin, (+)-(1S,3R,7S,8S,8aR)-1,2,3,7,8,8a-hexahydro-3,7-dimethyl-8-[2-[ (2R,4R)-tetrahydro-4-hydroxy-6-oxo-2H-pyran-2-yl]ethyl]-1-naphthyl 2,2-dimethylbutyrate], the “Changes in atherosclerosis index (LDL/HDL) (%)” value in experiment [2] (4 Days after treatment) is 86.6%; in experiment [2] (8 Days after treatment), 93.8%; in experiment [2] (12 Days after treatment), 86.3%. Further, the “Changes in blood total cholesterol levels (%)” value in experiment [3] (4 Days after treatment) is listed as 94.8%; in experiment [3] (8 Days after treatment), 94.1%; in experiment [3] (12 Days after treatment), 92.4%. The “Changes in blood NOx levels (%)” value in experiment [1] (setting [5]) is 101.6%; in experiment [1] (4 Days after treatment, mg/Kg: gamma-oryzanol 100, simvastatin 1), 101.6%; in experiment [1] (setting [6]) it was 85.5%; in experiment [1] (8 Days after treatment, mg/Kg: gamma-oryzanol 100, simvastatin 1), 85.5%; in experiment [1] (setting [7]), 121.9%; in experiment [1] (12 Days after treatment, mg/Kg: gamma-oryzanol 100, simvastatin 1), 121.9%. Also, the “Changes in blood LDL levels (%)” value was found to be 83.9% in experiment [4] (4 Days after treatment), 90.4% in experiment [4] (8 Days after treatment) and 81.3% in experiment [4] (12 Days after treatment).
